Each structure is given as a SMILES string.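 Cells were grown in 96-well plates and exposed to each compound for 48 hours at five concentrations; endpoints were interpolated linearly between bracketing concentrations, or set to the highest concentration if not reached. At the GI50, growth is halved.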 The source made the active and inactive calls. Cut-off read from the data, not from the text of the source: active = GI50 up to about 1.1 µM and inactive = higher. Bounds are passed on as bounds.

The term GI50 denotes the concentration giving 50% growth inhibition.

Test systems include A549; BT-549; EKVX; HCC 2998; HOP-62; KM12; M14; MCF7; MOLT-4; NCI-H226; NCI/ADR-RES; OVCAR-3; RPMI-8226; RXF 393; SK-MEL-5; SK-OV-3; SNB-19; U-251; K562; SF-539.
Common to all, as to assay: DTP human tumour cell line panel, 48 h

For `COc1ccc(-c2nc(O)c3ccccc3n2)c(OC)c1`, the GI50 with A549, with BT-549, with EKVX, in the assay on HCC 2998, in the assay with HOP-62 and in the assay with KM12 was > 100 µM (inactive) each time. Also, the GI50 in the assay on M14, in the assay with MCF7, with MOLT-4, with NCI-H226, in the assay on NCI/ADR-RES and in the assay with OVCAR-3 was > 100 µM (inactive) throughout. In addition, the GI50 was 29.1 µM (inactive) in the assay with RPMI-8226; > 100 µM (inactive) in the assay with RXF 393; > 100 µM (inactive) in the assay with SK-MEL-5; > 100 µM (inactive) in the assay on SK-OV-3; > 100 µM (inactive) in the assay on SNB-19; > 100 µM (inactive) with U-251.
As to `CCSc1n/c(=C\c2ccc(N(C)C)cc2)c2nnnn12`, the GI50 in the assay with A549, with BT-549, in the assay with EKVX, with HCC 2998, with HOP-62 and in the assay with KM12 was > 100 µM (inactive) throughout. For the same compound, the GI50 in the assay with M14, in the assay on MCF7, in the assay with MOLT-4, with NCI-H226, with NCI/ADR-RES and in the assay on OVCAR-3 was > 100 µM (inactive) throughout. In addition, the GI50 in the assay on RPMI-8226, with RXF 393, in the assay with SK-MEL-5, with SK-OV-3, in the assay on SNB-19 and in the assay on U-251 was > 100 µM (inactive) in each case.
For `O=C1CC(c2ccc(Cl)cc2)C2(C(=O)NC(=O)NC2=O)C(c2ccc(Cl)cc2)C1` (stereo not given), the GI50 in the assay on BT-549 is 30.7 µM (inactive); in the assay with EKVX, 47.4 µM (inactive); in the assay with HCC 2998, 27.9 µM (inactive); in the assay with HOP-62, 22.9 µM (inactive); with K562 it was 7.5 µM (inactive); with KM12 it was 36.4 µM (inactive). Also, the GI50 with M14 was 27.7 µM (inactive); with MCF7, 22.3 µM (inactive); in the assay on MOLT-4 it was 0.0075 µM (active); in the assay on NCI-H226, 16 µM (inactive); in the assay with NCI/ADR-RES it was 26.4 µM (inactive); in the assay with OVCAR-3, 24.9 µM (inactive). Further, the GI50 in the assay with RPMI-8226 was 10.3 µM (inactive); in the assay on RXF 393, 15 µM (inactive); in the assay with SF-539 it was 28.2 µM (inactive); in the assay on SK-MEL-5, 14.5 µM (inactive); with SNB-19, 32.3 µM (inactive); with U-251 it was 27.5 µM (inactive).
With `N#CC(c1ccccc1)N(CCOCCOCCN(C(=O)c1cccc2ccccc12)C(C#N)c1ccccc1)C(=O)c1cccc2ccccc12` (stereo not given), the GI50 is 17.5 µM (inactive) with A549; > 100 µM (inactive) with BT-549; > 100 µM (inactive) with EKVX; > 100 µM (inactive) in the assay with HCC 2998; 42.4 µM (inactive) with K562; > 100 µM (inactive) in the assay on KM12. Further, the GI50 in the assay on M14 was > 100 µM (inactive); with MCF7 it was > 100 µM (inactive); in the assay on MOLT-4, 8.15 µM (inactive); in the assay with NCI-H226 it was > 100 µM (inactive); in the assay with NCI/ADR-RES, > 100 µM (inactive); in the assay on OVCAR-3, > 100 µM (inactive). For the same compound, the GI50 in the assay on RXF 393, in the assay with SF-539, with SK-MEL-5, with SK-OV-3, in the assay on SNB-19 and with U-251 was > 100 µM (inactive) throughout.
Take `CC1C(c2ccccc2)NC(c2ccccc2)CC1(N)C#N` (stereo not given): the GI50 with A549, in the assay on BT-549, in the assay on EKVX, with HCC 2998, in the assay on HOP-62 and in the assay on K562 was > 100 µM (inactive) in each case. For the same compound, the GI50 in the assay on KM12 is > 100 µM (inactive); in the assay with M14, 38.8 µM (inactive); with MCF7, > 100 µM (inactive); in the assay with MOLT-4, > 100 µM (inactive); with NCI-H226 it was > 100 µM (inactive); in the assay on NCI/ADR-RES, > 100 µM (inactive). The GI50 in the assay on OVCAR-3, with RXF 393, in the assay on SF-539, in the assay on SK-MEL-5, in the assay with SK-OV-3 and in the assay on SNB-19 was > 100 µM (inactive) throughout. Also, the GI50 in the assay on U-251 is > 100 µM (inactive).
Consider `[O-][S+](CC1(O)CCCCC1)c1ccccc1` (stereo not given), for which the GI50 in the assay with A549, in the assay with BT-549, with EKVX, in the assay on HCC 2998, with HOP-62 and with K562 was > 100 µM (inactive) throughout. For the same compound, the GI50 with KM12, in the assay with M14, in the assay on MCF7, with MOLT-4, in the assay with NCI-H226 and in the assay with NCI/ADR-RES was > 100 µM (inactive) each time. The GI50 in the assay on RPMI-8226 is < 0.01 µM (active); with RXF 393 it was > 100 µM (inactive); with SK-MEL-5, > 100 µM (inactive); with SK-OV-3, > 100 µM (inactive); with SNB-19, > 100 µM (inactive); in the assay with U-251, > 100 µM (inactive).
Turning to `C=C1CC2[C@H](C)C(=O)CCC2(C)C2=C1C1CCC(C(C)CCC(=C)C(C)C(=O)O)C1(C)CC2=O` (stereo not given in full), the GI50 in the assay with A549 was 66.7 µM (inactive); in the assay with BT-549 it was 37.2 µM (inactive); with EKVX, 71.8 µM (inactive); in the assay with HCC 2998 it was 47 µM (inactive); in the assay with HOP-62, 45.4 µM (inactive); with K562, 9.75 µM (inactive). Also, the GI50 is 71.4 µM (inactive) in the assay on KM12; > 100 µM (inactive) in the assay with M14; 83.9 µM (inactive) in the assay on MCF7; 16.8 µM (inactive) in the assay on MOLT-4; 82 µM (inactive) in the assay with NCI-H226; 84.1 µM (inactive) in the assay with NCI/ADR-RES. Besides, the GI50 in the assay with OVCAR-3 is 30.5 µM (inactive); with RXF 393, 30.1 µM (inactive); with SF-539 it was 97.3 µM (inactive); in the assay on SK-MEL-5, 31.3 µM (inactive); with SK-OV-3, 89.5 µM (inactive); in the assay on SNB-19 it was 69.5 µM (inactive). The GI50 in the assay with U-251 is 55.1 µM (inactive).
On to `N#C[C@H]1C(=O)C(c2nc3ccccc3[nH]2)S[C@H]1c1ccccc1` (stereo not given in full), for which the GI50 in the assay with A549 was 45.4 µM (inactive); in the assay with BT-549, 26.5 µM (inactive); with EKVX it was 28.9 µM (inactive); in the assay on HCC 2998, 50 µM (inactive); in the assay with K562 it was 35.2 µM (inactive); in the assay on KM12 it was 44.2 µM (inactive). Moreover, the GI50 is 33.3 µM (inactive) in the assay with M14; 28.4 µM (inactive) in the assay with MCF7; 33.7 µM (inactive) in the assay with MOLT-4; 85.3 µM (inactive) in the assay with NCI-H226; 30.9 µM (inactive) with NCI/ADR-RES; 31 µM (inactive) in the assay on OVCAR-3. Besides, the GI50 with RPMI-8226 is 25.5 µM (inactive); in the assay with RXF 393 it was 19.1 µM (inactive); in the assay with SK-MEL-5 it was 25.2 µM (inactive); with SK-OV-3, 47.1 µM (inactive); in the assay with SNB-19, 45.4 µM (inactive); with U-251, 22.6 µM (inactive).
Take `CC(=O)OCC1OC(Nc2ccc3nc(C)n(-c4cccc(C)c4)c(=O)c3c2)C(OC(C)=O)C(OC(C)=O)C1OC(C)=O` (stereo not given): the GI50 with BT-549, in the assay with EKVX, in the assay with HCC 2998, with HOP-62, with K562 and in the assay on KM12 was > 62.5 µM (inactive) throughout. For the same compound, the GI50 in the assay on MCF7 was > 62.5 µM (inactive); in the assay on MOLT-4 it was > 62.5 µM (inactive); with NCI-H226, > 62.5 µM (inactive); in the assay with NCI/ADR-RES, > 62.5 µM (inactive); with OVCAR-3, > 62.5 µM (inactive); with RPMI-8226, 36.4 µM (inactive). For the same compound, the GI50 in the assay with RXF 393, in the assay on SK-MEL-5, in the assay on SNB-19 and with U-251 was > 62.5 µM (inactive) each time.
As to `COC(=O)c1ccccc1C1CN=NC12Cc1ccc(C)c(C)c1C2=O` (stereo not given), the GI50 in the assay with A549 is 57.5 µM (inactive); in the assay with BT-549, > 100 µM (inactive); in the assay on EKVX, > 100 µM (inactive); in the assay with HCC 2998 it was 68.9 µM (inactive); with HOP-62 it was > 100 µM (inactive); with K562, 28.9 µM (inactive). Moreover, the GI50 in the assay on KM12 is 29.2 µM (inactive); in the assay with M14, 62.7 µM (inactive); in the assay with MCF7, 35.6 µM (inactive); in the assay on MOLT-4, 26.1 µM (inactive); with NCI-H226 it was > 100 µM (inactive); in the assay with NCI/ADR-RES, 21.9 µM (inactive). The GI50 with OVCAR-3 was > 100 µM (inactive); with RXF 393, 76.4 µM (inactive); in the assay on SF-539, > 100 µM (inactive); in the assay on SK-MEL-5, 21.6 µM (inactive); in the assay with SK-OV-3 it was > 100 µM (inactive); in the assay with SNB-19, > 100 µM (inactive). The GI50 in the assay with U-251 was > 100 µM (inactive).
`CC1(C)CC[C@]2(C(=O)O)CC[C@]3(C)C(=CC[C@@H]4[C@@]5(C)CC[C@H](OC6OC(CO)C(O)C(O)C6O)C(C)(C)[C@@H]5CC[C@]43C)[C@@H]2C1` (stereo not given in full): the GI50 in the assay on A549 was 1.68 µM (inactive); with BT-549, 1.31 µM (inactive); with EKVX, 1.93 µM (inactive); in the assay on HCC 2998 it was 1.59 µM (inactive); in the assay on HOP-62, 1.72 µM (inactive); in the assay on K562 it was 1.42 µM (inactive). In addition, the GI50 is 1.52 µM (inactive) with KM12; 1.75 µM (inactive) in the assay with M14; 2.37 µM (inactive) in the assay with MCF7; 1.85 µM (inactive) with MOLT-4; 1.77 µM (inactive) in the assay on NCI-H226; 7.89 µM (inactive) in the assay on NCI/ADR-RES. In addition, the GI50 with OVCAR-3 is 1.61 µM (inactive); in the assay with RPMI-8226 it was 2.61 µM (inactive); in the assay with RXF 393, 1.98 µM (inactive); in the assay with SK-MEL-5, 1.93 µM (inactive); in the assay with SK-OV-3, 1.75 µM (inactive); in the assay with SNB-19, 1.52 µM (inactive). For the same compound, in the assay with U-251, the GI50 is 1.68 µM (inactive).

The values are drawn from ChEMBL document CHEMBL1201862, “PubChem BioAssay data set” (2004).
